Results on six compounds are retold here after patent US9034886B2, “4-aminoquinazoline derivatives and uses thereof” (Shanghai Institute of Pharmaceutical Industry, priority 2011, dated 2015).

For orientation: IC50 means the concentration that inhibits the measured activity by half. Lower therefore signals greater potency in that assay. Usually inhibition stands for the drop in the measured response relative to a control, in per cent.

One data set relates to HDACs. The experiment in a line: In vitro inhibition of HDACs (HDAC Inhibitor Drug Screening Kit, Biovision K340-100). The class given is biochemical. As for the experimental part:
The in vitro inhibitory activities of the compounds towards HDACs were tested according to the instructions in the HDAC Inhibitor Drug Screening Kit (Biovision/Catalog #K340-100).
(1) The compounds to be tested were each individually prepared as 2 mM, 200 μM and 40 μM solutions and their inhibitory activities at these concentrations were tested.

Another data set has as its target HDAC1 (Homo sapiens (Human), UniProt Q13547). The experiment in a line: In vitro inhibition of subtype HDAC1 (HDAC1 Inhibitor Drug Screening Kit, Biovision). The class given is biochemical. Conditions: for inhibition at 1 µM / inhibition at 10 µM: read-out: % Inhibition towards HDAC1; for inhibitory activity against HDAC1 compared with MS-275: both concentrations 10 μM and 1 μM. As for the experimental part: The in vitro inhibitory activities of the compounds towards the subtype HDAC1 were tested according to the instructions in the HDAC1 Inhibitor Drug Screening Kit (Biovision).
(1) The compounds to be tested were each individually prepared as 10 μM and 1 μM solutions and their inhibitory activities at these concentrations were tested.
Each dilution sample was placed in two wells and the enzyme inhibition IC50 of the compound was tested.

Data set [1] concerns Hut78 T lymphocytic leukemia cells. The experiment in a line: In vitro anti-proliferative effect, CCK-8 method, Hut78. The class given is cell-based. Conditions: Homo sapiens, HuT78, read-out: Hut-78 (inhibition %). As to the method: (§1) The inhibitory activities of the compounds towards Hut78 T lymphocytic leukemia cells, Jurkat E6-1 human T-cell lymphoma, PANC-1 human pancreatic cancer cells, A549 human lung cancer cells, K562 human chronic myelogenous leukemia cells, Hep3B2.1-7 human liver cancer cells, MDA-MB-435s human breast cancer cells. Colo320 human colorectal cancer cell lines, and PC-3 human prostate cancer at two concentrations of 100 μM and 10 μM were determined. The inhibition percentages were obtained through CCK-8 method.
(Tetrazolium assays rely on reduction of a dye to a coloured formazan, in cell work by metabolically active cells.)

Data set [2] deals with PANC-1 human pancreatic cancer cells. Kind of data set: In vitro anti-proliferative effect, CCK-8 method, PANC-1. The class given is cell-based. Conditions: Homo sapiens, PANC-1. As to the method:
as §1

The test system of data set [3] is Jurkat E6-1 human T-cell lymphoma. The experiment in a line: In vitro anti-proliferative effect, CCK-8 method, Jurkat E6-1. The class given is cell-based. Conditions: Homo sapiens, Jurkat E6.1. As for the experimental part: as §1
For data set [4], the system named is K562 human chronic myelogenous leukemia cells. Kind of data set: In vitro anti-proliferative effect, CCK-8 method, K562. The class given is cell-based. Conditions: Homo sapiens, K562. As for the experimental part: as §1
Data set [5] relates to A549 human lung cancer cells. The experiment in a line: In vitro anti-proliferative effect, CCK-8 method, A549. The class given is cell-based. Conditions: Homo sapiens, A549. As for the experimental part: as §1
The test system of data set [6] is MDA-MB-435s human breast cancer cells. The experiment in a line: In vitro anti-proliferative effect, CCK-8 method, MDA-MB-435s. The class given is cell-based. Conditions: Homo sapiens, MDA-MB-435S. As to the method: as §1
Data set [7] relates to Hep3B2.1-7 human liver cancer cells. Kind of data set: In vitro anti-proliferative effect, CCK-8 method, Hep3B. The class given is cell-based. Conditions: Homo sapiens, Hep3B cell strain, CCK-8 method; for inhibition at 10 µM: compound at 10 μM; for inhibition at 100 µM: compound at 100 μM. As for the experimental part:
as §1

The test system of data set [8] is PC-3 human prostate cancer. The experiment in a line: In vitro anti-proliferative effect, CCK-8 method, PC-3. The class given is cell-based. Conditions: Homo sapiens, PC-3 cell strain, CCK-8 method; for inhibition at 10 µM: compound at 10 μM; for inhibition at 100 µM: compound at 100 μM. As for the experimental part:
as §1

The test system of data set [9] is Colo320 human colorectal cancer cell lines. The experiment in a line: In vitro anti-proliferative effect, CCK-8 method, Colo320. Conditions: Homo sapiens, COLO 320, Colo320 cell strain, CCK-8 method; for inhibition at 10 µM: compound at 10 μM; for inhibition at 100 µM: compound at 100 μM. The class given is cell-based. As for the experimental part: as §1
Data set [10] in a line: Maximum tolerance dose through intragastrical administration. Conditions: mice, administrated intragastrically. The class given is in vivo. As to the method: Forty ICR mice, half female and half male, weighing […] were divided into four groups, 10 mice in each group. After the mice were fasted for 6 h, the compound to be tested was administrated intragastrically to each group at a volume of 0.3 ml/10 g by using a sterile plastic syringe. General physical signs and the deaths of the animals were record at 1, 2 and 4 h after the administration. The animals were then observed continuously for 14 days and their weights, physical signs and deaths were observed and recorded every day. Dead animals were dissected to see if there was any visible pathological change in the animal's viscera and pathological examination was performed on suspicious tissues and organs. A part of the experimental results is as follows.

Sequence of HDAC1 (Q13547 whole entry): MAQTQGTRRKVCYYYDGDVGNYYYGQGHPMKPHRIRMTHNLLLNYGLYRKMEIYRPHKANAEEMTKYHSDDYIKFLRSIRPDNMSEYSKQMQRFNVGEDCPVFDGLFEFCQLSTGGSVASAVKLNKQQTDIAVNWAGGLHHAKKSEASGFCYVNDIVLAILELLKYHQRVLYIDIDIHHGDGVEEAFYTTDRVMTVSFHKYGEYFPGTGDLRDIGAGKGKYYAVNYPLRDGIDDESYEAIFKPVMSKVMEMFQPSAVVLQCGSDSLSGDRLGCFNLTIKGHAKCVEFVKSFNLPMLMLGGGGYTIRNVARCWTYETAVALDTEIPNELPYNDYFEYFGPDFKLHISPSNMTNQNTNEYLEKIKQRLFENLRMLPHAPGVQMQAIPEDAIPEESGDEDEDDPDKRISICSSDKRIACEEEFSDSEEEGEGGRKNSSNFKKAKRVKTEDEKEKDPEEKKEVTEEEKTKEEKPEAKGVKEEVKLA

`CS(=O)(=O)CCNCc1ccc(-c2ccc3ncnc(Nc4ccc(C(=O)Nc5ccccc5N)cc4)c3c2)o1` [Compound V-19, N-(2-aminophenyl)-4-[6-(5-((2-(methylsulfonyl)ethylamino)methyl)furyl)quinazoline-4-amino]benzamide]: half-maximal inhibition in the data set on HDACs (IC50) required 1370 nM. Further, the “Inhibition percentage (%) towards HDACs” value with HDACs (40 μM) came out at 22.7%; with HDACs (200 μM) it was 57.8%; in the data set on HDACs (2 mM) it was 72.3%. The inhibition at 1 µM at HDAC1 came to 47.6%. Further, the inhibition at 10 µM amounted to 80.2% at HDAC1; 43% in data set [1]; 20.2% in data set [2]; 58.3% in data set [3]; 54.3% in [4]; 6.3% in [5]. For the same compound, the inhibition at 10 µM in data set [6] was 33%; in [7], 25.4%; in data set [8], 50.2%; in data set [9] it was 12.9%. Besides, at HDAC1, the “inhibitory activity against HDAC1 compared with MS-275” value is recorded as “superior to that of MS-275”. Besides, the inhibition at 100 µM was 77% in data set [1]; 26.2% in data set [2]; 80.9% in data set [3]; 85.8% in data set [4]; 37.3% in [5]; 77% in data set [6]. Further, the inhibition at 100 µM was 49.9% in data set [7], 61% in data set [8] and 40.1% in data set [9].

For `CC(=O)Nc1ccc2ncnc(Nc3ccc(C(=O)Nc4ccccc4N)cc3)c2c1` [Compound V-21, N-(2-aminophenyl)-4-(6-acetamidoquinazoline-4-amino)benzamide], the entries for the “Inhibition percentage (%) towards HDACs” value with HDACs (40 μM), with HDACs (200 μM) and in the data set with HDACs (2 mM) were 10.1%, 39.1% and 79.2%, respectively. Besides, the inhibition at 1 µM at HDAC1 is 55%. Also, the inhibition at 10 µM at HDAC1 came out at 86.9%; in data set [1], 65.2%; in data set [2], 12.5%; in data set [3] it was 49.3%; in [4] it was 52.2%; in data set [5], 17.1%. Moreover, the inhibition at 10 µM in data set [6] amounted to 25.2%; in data set [7], 11%; in data set [8], 40.1%; in [9], 9.5%. Further, the “inhibitory activity against HDAC1 compared with MS-275” value on HDAC1 is on record as “superior to that of MS-275”. Further, the inhibition at 100 µM in [1] was 75.6%; in data set [2], 33.3%; in data set [3], 89.7%; in data set [4], 85.2%; in data set [5] it was 96.4%; in data set [6] it was 88.8%. The inhibition at 100 µM in data set [7] came out at 68.1%; in data set [8] it was 64.2%; in data set [9], 45.9%.

Take `COc1cc2ncnc(Nc3ccc(C(=O)Nc4cc(-c5cccs5)ccc4N)cc3)c2cc1OC` [Compound V-23, N-[2-amino-5-(2-thienyl)phenyl]-4-(6,7-dimethoxyquinazoline-4-amino)benzamide]: the entries for the “Inhibition percentage (%) towards HDACs” value in the data set with HDACs (40 μM), in the data set on HDACs (200 μM) and in the data set with HDACs (2 mM) were 17.5%, 37.3% and 40.7%, respectively. At HDAC1, this compound yielded an IC50 of 178 nM. Also, on HDAC1, the inhibition at 1 µM came out at 19.2%. The inhibition at 10 µM on HDAC1 is 55.8%; in data set [1] it was 59.9%; in [2] it was 9.2%; in [3], 4.7%; in data set [4], 12.8%; in data set [5] it was -7.4%. Besides, the inhibition at 10 µM in data set [6] was 21.5%; in data set [7] it was 1%; in data set [8], 7%; in data set [9] it was 7.3%. The inhibition at 100 µM came to 93.1% in data set [1]; 4% in [2]; 52.7% in [3]; 61.2% in [4]; 6.2% in [5]; 42.9% in data set [6]. For the same compound, the results for the inhibition at 100 µM in data set [7], in [8] and in data set [9] were 28.1%, 40.2% and 5.9%, respectively.

As to `Nc1cnccc1NC(=O)c1ccc(CNc2ncnc3ccccc23)cc1` [Compound V-26], the “Inhibition percentage (%) towards HDACs” value in the data set on HDACs (40 μM) is recorded as 11.4%; with HDACs (200 μM), 40.2%; in the data set on HDACs (2 mM) it was 82.4%. At HDAC1, the inhibition at 1 µM worked out at 46.4%. Also, the inhibition at 10 µM is 88.4% on HDAC1; 79.6% in [1]; 5.1% in [2]; 76.9% in data set [3]; 54% in [4]; 4.2% in data set [5]. The inhibition at 10 µM was 16.6% in data set [6], 11.7% in data set [7], 8.7% in data set [8] and -0.2% in [9]. In addition, the “inhibitory activity against HDAC1 compared with MS-275” value against HDAC1 was “superior to that of MS-275”. In addition, the inhibition at 100 µM came out at 86.9% in data set [1]; 40.8% in data set [2]; 95.1% in [3]; 88.2% in [4]; 63.7% in [5]; 73.6% in data set [6]. Further, the inhibition at 100 µM in data set [7] came to 63.5%; in [8] it was 52.6%; in [9], 44.4%.

Consider `Nc1ccccc1NC(=O)c1ccc(CNc2ncnc3c(F)cccc23)cc1` [Compound V-43, N-(2-aminophenyl)-4-[(8-fluoroquinazoline-4-amino)methyl]benzamide], for which the inhibition at 10 µM in [1] amounted to 75.7%; in data set [2], 3.1%; in [3], 69.1%; in data set [4] it was 13.8%; in data set [5], 41.2%; in data set [6], 18.8%. In addition, the inhibition at 10 µM in [7] was 21.2%; in [8], 81.4%; in [9] it was 19.1%. The inhibition at 100 µM in data set [1] stood at 89.6%; in data set [2], 35.9%; in [3], 96.8%; in data set [4] it was 60.8%; in data set [5], 85.5%; in [6] it was 86.4%. The inhibition at 100 µM in data set [7] worked out at 58.8%; in data set [8], 89.4%; in [9] it was 59.4%. In addition, the maximum tolerance dose entry in data set [10] is listed as “over 5000 mg/kg”.

Consider `CC(=O)Nc1ccc2ncnc(NCc3ccc(C(=O)Nc4ccccc4N)cc3)c2c1` [Compound V-46, N-(2-aminophenyl)-4-[(6-acetamidoquinazoline-4-amino)methyl]benzamide], for which the inhibition at 10 µM in data set [1] was found to be 16.4%; in [2], 8.1%; in [3], 14.8%; in data set [4], 27.3%; in data set [5] it was 7.7%; in [6], 16.4%. Further, the inhibition at 10 µM in [7] was 17.5%; in data set [8], -1.7%; in data set [9], 13.7%. Further, the inhibition at 100 µM was determined as 93.4% in [1]; 70.4% in data set [2]; 1.9% in data set [3]; 18.9% in data set [4]; 4.1% in data set [5]; 4.1% in data set [6]. Besides, the inhibition at 100 µM in data set [7] was -5%; in [8] it was -2.4%; in data set [9], -9%. The maximum tolerance dose result in data set [10] is on record as “over 2000 mg/kg”.
